Assay results published in article PMC11039737, “Exploring a repurposed candidate with dual hIDO1/hTDO2 inhibitory potential for anticancer efficacy identified through pharmacophore-based virtual screening and in vitro evaluation” (Scientific Reports, 2024).

Experiments:
[1] = biological target: T1, human Tryptophan 2,3-dioxygenase 2 (hTDO2) (Homo sapiens, UniProt P48775); assay: TDO2 Fluorogenic Inhibitor Screening Assay Kit (Catalog # […]), enzymatic dose response; assay type: biochemical
T1 construct: gene TDO2
T1 sequence (P48775 whole entry): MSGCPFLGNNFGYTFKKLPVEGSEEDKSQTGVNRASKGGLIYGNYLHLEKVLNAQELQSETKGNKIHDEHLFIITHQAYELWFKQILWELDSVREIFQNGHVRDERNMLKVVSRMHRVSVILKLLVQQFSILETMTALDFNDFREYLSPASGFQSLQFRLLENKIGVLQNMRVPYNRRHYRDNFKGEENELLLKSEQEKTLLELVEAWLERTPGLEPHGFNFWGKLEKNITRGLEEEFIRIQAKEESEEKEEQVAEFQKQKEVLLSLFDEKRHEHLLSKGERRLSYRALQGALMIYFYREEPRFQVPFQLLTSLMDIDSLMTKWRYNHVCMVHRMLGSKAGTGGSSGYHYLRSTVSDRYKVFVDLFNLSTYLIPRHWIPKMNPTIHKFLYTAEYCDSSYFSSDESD

[2] = biological target: T2, human Indoleamine 2,3-dioxygenase 1 (hIDO1) (Homo sapiens, UniProt P14902); assay: IDO1 Inhibitor Screening Assay Kit (Catalog # […]), enzymatic dose response; assay type: biochemical
T2 construct: gene IDO1
T2 sequence (P14902 whole entry): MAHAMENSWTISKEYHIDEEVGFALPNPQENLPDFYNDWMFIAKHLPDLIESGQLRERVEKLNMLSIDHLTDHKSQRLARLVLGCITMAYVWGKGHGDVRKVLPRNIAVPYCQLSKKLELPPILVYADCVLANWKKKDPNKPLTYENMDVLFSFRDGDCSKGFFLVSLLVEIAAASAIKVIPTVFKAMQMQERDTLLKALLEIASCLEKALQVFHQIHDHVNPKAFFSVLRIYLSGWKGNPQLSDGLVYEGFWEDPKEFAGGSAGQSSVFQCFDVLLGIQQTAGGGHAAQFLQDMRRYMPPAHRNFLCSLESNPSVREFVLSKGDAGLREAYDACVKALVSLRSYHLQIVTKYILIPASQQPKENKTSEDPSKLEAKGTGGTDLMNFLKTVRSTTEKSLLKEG

- IC50 [1]: 588 ± 27 nM
- IC50 [2]: 351 ± 16 nM
Compound: O=C(O)C[C@H](O)C[C@H](O)/C=C/c1c(C2CC2)nc2ccccc2c1-c1ccc(F)cc1 [Pitavastatin]
